Experimental data from PubChem BioAssay AID248 (DTP/NCI, 2004).
Values joined by “and” are separate entries in the source; they are usually repeats but may differ in a detail not shown here. Equal values may be shown once. Toxic doses and inconclusive results are not listed. Cut-off read from the data, not from the text of the source: active = T/C of 150% or more; inactive = T/C below 125%.

System: L1210 leukemia ip in BDF1 mice, survival T/C
Experiment: NCI In Vivo Anticancer Drug Screen. Data for tumor model L1210 Leukemia (intraperitoneal) in B6D2F1 (BDF1) mice
Settings: endpoint: mean survival time, higher = longer survival
In short: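 Tumor was transplanted into mice, which were then dosed with test compound or vehicle alone. Survival was recorded for each group, and the treated figure was expressed relative to the control figure.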

[1] = dose: 100.0 mg/kg/injection, schedule: Q04DX002 (ip), vehicle: Klucel (hydroxypropylcellulose) (HPC)
[2] = dose: 200.0 mg/kg/injection, schedule: Q04DX002 (ip), vehicle: Klucel (hydroxypropylcellulose) (HPC)
[3] = dose: 400.0 mg/kg/injection, schedule: Q04DX002 (ip), vehicle: Klucel (hydroxypropylcellulose) (HPC)
[4] = dose: 12.5 mg/kg/injection, schedule: Q01DX009 (ip), vehicle: Klucel (hydroxypropylcellulose) (HPC)
[5] = dose: 25.0 mg/kg/injection, schedule: Q01DX009 (ip), vehicle: Klucel (hydroxypropylcellulose) (HPC)
[6] = dose: 50.0 mg/kg/injection, schedule: Q01DX009 (ip), vehicle: Klucel (hydroxypropylcellulose) (HPC)

Measured: T/C

CC(=O)Nc1ccc(C=Nc2ccc3c(c2)Cc2ccccc2-3)cc1
inactive: dose: 100.0 mg/kg/injection, schedule: Q01DX009 (ip), vehicle: Klucel (hydroxypropylcellulose) (HPC) 91 % of control | dose: 100.0 mg/kg/injection, schedule: Q04DX003 (ip), vehicle: Klucel (hydroxypropylcellulose) (HPC) 94 % of control | dose: 200.0 mg/kg/injection, schedule: Q01DX009 (ip), vehicle: Klucel (hydroxypropylcellulose) (HPC) 87 % of control | dose: 200.0 mg/kg/injection, schedule: Q04DX003 (ip), vehicle: Klucel (hydroxypropylcellulose) (HPC) 90 % of control | dose: 400.0 mg/kg/injection, schedule: Q01DX009 (ip), vehicle: Klucel (hydroxypropylcellulose) (HPC) 86 % of control | dose: 400.0 mg/kg/injection, schedule: Q04DX003 (ip), vehicle: Klucel (hydroxypropylcellulose) (HPC) 89 % of control

Oc1ccc(O)c2c1CNCC2O (stereo unspecified)
inactive: dose: 100.0 mg/kg/injection, schedule: Q01DX001 (ip), vehicle: saline 97 % of control | dose: 200.0 mg/kg/injection, schedule: Q01DX001 (ip), vehicle: saline 104 % of control

CCOc1cc([N+](=O)[O-])c(OCC)cc1C#N
inactive: dose: 5.0 mg/kg/injection, schedule: Q01DX001 (ip), vehicle: other 106 % of control | dose: 10.0 mg/kg/injection, schedule: Q01DX001 (ip), vehicle: other 90 % of control | dose: 20.0 mg/kg/injection, schedule: Q01DX001 (ip), vehicle: other 93 % of control

NC(N)=N/N=C\c1cccc(OCc2ccccc2)c1
inactive: dose: 15.0 mg/kg/injection, schedule: Q01DX Z (oral), vehicle: saline 94 % of control | dose: 30.0 mg/kg/injection, schedule: Q01DX Z (oral), vehicle: saline 89 % of control | dose: 60.0 mg/kg/injection, schedule: Q01DX Z (oral), vehicle: saline 93 % of control | dose: 120.0 mg/kg/injection, schedule: Q01DX Z (oral), vehicle: saline 94 % of control

CSc1nc2ccc([N+](=O)[O-])cc2s1
inactive: [1] 93 % of control | [2] 97 % of control | [3] 101 % of control

O=C(OCc1ccccc1CN1CCOCC1)c1cccc(Cl)c1
inactive: [1] 92 % of control | [2] 92 % of control | [3] 95 % of control

COc1cccc(/C=C/[N+](=O)[O-])c1
inactive: [4] 95 % of control | [5] 98 % of control | dose: 25.0 mg/kg/injection, schedule: Q04DX003 (ip), vehicle: Klucel (hydroxypropylcellulose) (HPC) 89 % of control | dose: 45.0 mg/kg/injection, schedule: Q04DX003 (ip), vehicle: saline with Tween-80 103 % of control | [6] 97 % of control | dose: 50.0 mg/kg/injection, schedule: Q04DX003 (ip), vehicle: Klucel (hydroxypropylcellulose) (HPC) 96 % of control | dose: 90.0 mg/kg/injection, schedule: Q04DX003 (ip), vehicle: saline with Tween-80 106 % of control | dose: 180.0 mg/kg/injection, schedule: Q04DX003 (ip), vehicle: saline with Tween-80 90 % of control

Cc1nc(NNCc2ccccc2)n[nH]1
inactive: dose: 37.5 mg/kg/injection, schedule: Q01DX001 (ip), vehicle: Klucel (hydroxypropylcellulose) (HPC) 106 % of control | dose: 75.0 mg/kg/injection, schedule: Q01DX001 (ip), vehicle: Klucel (hydroxypropylcellulose) (HPC) 101 % of control | dose: 150.0 mg/kg/injection, schedule: Q01DX001 (ip), vehicle: Klucel (hydroxypropylcellulose) (HPC) 110 % of control

CC(=O)OC1C(C)OC(n2cnc3c(=S)nc[nH]c32)C1OC(C)=O (stereo unspecified)
inactive: dose: 50.0 mg/kg/injection, schedule: Q01DX001 (ip), vehicle: carboxymethylcellulose (CMC) 103 % of control | dose: 100.0 mg/kg/injection, schedule: Q01DX001 (ip), vehicle: carboxymethylcellulose (CMC) 101 % of control | dose: 200.0 mg/kg/injection, schedule: Q01DX001 (ip), vehicle: carboxymethylcellulose (CMC) 108 % of control | dose: 400.0 mg/kg/injection, schedule: Q01DX001 (ip), vehicle: carboxymethylcellulose (CMC) 106 % of control

CC(N=c1nc(N)ccn1C1OC(CO)C(O)C1O)C(=O)O (stereo unspecified)
inactive: dose: 200.0 mg/kg/injection, schedule: Q01DX005 (ip), vehicle: saline 120 % of control

Cc1ccc([I+]c2ccc(C)cc2)cc1
inactive: dose: 8.0 mg/kg/injection, schedule: Q04DX002 (ip), vehicle: saline 101 % of control | dose: 16.0 mg/kg/injection, schedule: Q04DX002 (ip), vehicle: saline 92 % of control | dose: 32.0 mg/kg/injection, schedule: Q04DX002 (ip), vehicle: saline 92 % of control

O=[N+]([O-])/C=C/C(Cl)(Cl)Cl
inactive: dose: 6.25 mg/kg/injection, schedule: Q01DX009 (ip), vehicle: Klucel (hydroxypropylcellulose) (HPC) 101 % of control | [4] 108 % of control | [5] 97 % of control | [6] 95 % of control

C(=N\c1oc(-c2ccccc2)nc1Sc1ccccc1)/c1ccccc1
inactive: [1] 92 % of control | [2] 100 % of control | [3] 96 % of control

O=C(CCN1CC1)OCCCCOC(=O)CCN1CC1
inactive: dose: 2.5 mg/kg/injection, schedule: Q01DX009 (ip), vehicle: saline 113 % of control | dose: 5.0 mg/kg/injection, schedule: Q01DX009 (ip), vehicle: saline 110 % of control | dose: 6.6 mg/kg/injection, schedule: Q01DX009 (ip), vehicle: saline 94 % of control and 102 % of control | dose: 10.0 mg/kg/injection, schedule: Q01DX009 (ip), vehicle: saline 102 % of control | dose: 15.0 mg/kg/injection, schedule: Q01DX009 (ip), vehicle: saline 100 % of control and 107 % of control | dose: 20.0 mg/kg/injection, schedule: Q01DX009 (ip), vehicle: saline 104 % of control | dose: 20.0 mg/kg/injection, schedule: Q04DX003 (ip), vehicle: saline 115 % of control | dose: 40.0 mg/kg/injection, schedule: Q04DX003 (ip), vehicle: saline 104 % of control | dose: 80.0 mg/kg/injection, schedule: Q04DX003 (ip), vehicle: saline 91 % of control
